Laboratory results: US6274715A, “Tricyclic erythromycin derivatives” (priority 1997, dated 2001)
Converted amounts (≈) assume the structure as drawn.

Legend:
Format in all cases: cell-based
[1] = test system: MYCOBACTERIUM SMEGMATIS ATCC 114; experiment: In vitro antibacterial activity, MIC, BHI agar dilution; conditions: M. smegmatis ATCC 114, unit assumed
[2] = test system: PSEUDOMONAS AERUGINOSA BMH10; experiment: as above; conditions: P. aeruginosa BMH10, unit assumed
[3] = test system: ACINETOBACTER CALCOACETICUS CMX 669; experiment: as above; conditions: A. calcoaceticus CMX 669, unit assumed
[4] = test system: PSEUDOMONAS AERUGINOSA DPHD-2862; experiment: as above; conditions: P. aeruginosa DPHD-2862, unit assumed
H. Influenza Dill AMP R = experiment: In vitro antibacterial activity against H. Influenza Dill AMP R, MIC; conditions: separate assay, unit assumed
Method: Representative compounds of the present invention were assayed in vitro for antibacterial activity as follows: Twelve petri dishes containing successive aqueous dilutions of the test compound mixed with 10 mL of sterilized Brain Heart Infusion (BHI) agar (Difco 0418-01-5) were prepared. Each plate was inoculated with 1:100 (or 1:10 for slow-growing strains, such as Micrococcus and Streptococcus) dilutions of up to 32 different microorganisms, using a Steers replicator block. The inoculated plates were incubated at 35-37° C. for 20 to 24 hours. In addition, a control plate, using BHI agar containing no test compound, was prepared and incubated at the beginning and end of each test.
After incubation, each plate was visually inspected. The minimum inhibitory concentration (MIC) was defmed as the lowest concentration of drug yielding no growth, a slight haze, or sparsely isolated colonies on the inoculum spot as compared to the growth control.
In a separate assay representative compounds of the invention were assayed in vitro for antibacterial activity against the H. Influenza Dill AMP R strain, according to the protocol described above.

[5] = test system: STAPHYLOCOCCUS AUREUS NCTC10649M; experiment: In vitro antibacterial activity, MIC, BHI agar dilution; conditions: S. aureus NCTC10649M, unit assumed
[6] = test system: STREPTOCOCCUS PYOGENES EES61; experiment: as above; conditions: S. pyogenes EES61, unit assumed
ESCHERICHIA COLI DC-2 = experiment: as above; conditions: E. coli DC-2, unit assumed
[7] = test system: PSEUDOMONAS AERUGINOSA K799/61; experiment: as above; conditions: P. aeruginosa K799/61, unit assumed
PSEUDOMONAS CEPACIA 296I = experiment: as above; conditions: P. cepacia 296I, unit assumed
[8] = test system: PSEUDOMONAS AERUGINOSA K799/WT; experiment: as above; conditions: P. aeruginosa K799/WT, unit assumed
[9] = test system: STREPTOCOCCUS BOVIS A-5169; experiment: as above; conditions: S. bovis A-5169, unit assumed
M[…] ATCC 9341 = experiment: as above; conditions: M. luteus ATCC 9341, unit assumed
Summary of the method: (§1)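 Twelve successive aqueous dilutions of compound in Brain Heart Infusion agar were inoculated with 1:100 culture dilutions (1:10 for slow growers such as Micrococcus, Streptococcus) by Steers replicator and incubated at 35-37° C for 20 to 24 hours. MIC was the lowest concentration giving no growth, slight haze or sparse colonies versus drug-free control.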

STR[…] 508 = experiment: as above; conditions: S. agalactiae CMX 508, unit assumed
Summary of the method: as §1

EN[…] ATCC 8043 = experiment: as above; conditions: E. faecium ATCC 8043, unit assumed
Summary of the method: as §1

M[…] ATCC 4698 = experiment: as above; conditions: M. luteus ATCC 4698, unit assumed
Summary of the method: as §1

[10] = test system: STAPHYLOCOCCUS AUREUS ATCC 6538P; experiment: as above; conditions: S. aureus ATCC 6538P, 35-37° C., 20 to 24 hours, unit assumed
[11] = test system: STAPHYLOCOCCUS EPIDERMIDIS 3519; conditions: S. epidermidis 3519; BHI agar; unit assumed
ESCHERICHIA COLI SS = experiment: In vitro antibacterial activity, MIC, BHI agar dilution; conditions: E. coli SS, unit assumed
[12] = test system: STREPTOCOCCUS PYOGENES PIU 2548; experiment: as above; conditions: S. pyogenes PIU 2548, unit assumed
ESCHERICHIA COLI KNK 437 = conditions: E. coli KNK 437; BHI agar; unit assumed
[13] = test system: PSEUDOMONAS AERUGINOSA DPHD-5263; experiment: In vitro antibacterial activity, MIC, BHI agar dilution; conditions: P. aeruginosa DPHD-5263, unit assumed
[14] = test system: KLEBSIELLA PNEUMONIAE ATCC 8045; experiment: as above; conditions: K. pneumoniae ATCC 8045, unit assumed
[15] = test system: PSEUDOMONAS AERUGINOSA 5007; experiment: as above; conditions: P. aeruginosa 5007, unit assumed
[16] = test system: STAPHYLOCOCCUS AUREUS A-5278; experiment: as above; conditions: S. aureus A-5278, unit assumed
[17] = test system: STAPHYLOCOCCUS AUREUS CMX 553; experiment: as above; conditions: S. aureus CMX 553, unit assumed
[18] = test system: STAPHYLOCOCCUS AUREUS 1775; experiment: as above; conditions: S. aureus 1775, unit assumed
[19] = test system: PROVIDENCIA STUARTII CMX 640; conditions: P. stuartii CMX 640; BHI agar; unit assumed
[20] = test system: STAPHYLOCOCCUS AUREUS A5177; experiment: In vitro antibacterial activity, MIC, BHI agar dilution; conditions: S. aureus A5177, unit assumed
[21] = test system: STAPHYLOCOCCUS AUREUS CMX 642A; experiment: as above; conditions: S. aureus CMX 642A, unit assumed
[22] = test system: ENTEROBACTER AEROGENES ATCC 13048; experiment: as above; conditions: E. aerogenes ATCC 13048, unit assumed
[23] = test system: STREPTOCOCCUS PYOGENES 930; experiment: as above; conditions: S. pyogenes 930, unit assumed
CANDIDA ALBICANS CCH 442 = experiment: as above; conditions: C. albicans CCH 442, unit assumed
ESCHERICHIA COLI H560 = experiment: as above; conditions: E. coli H560, unit assumed
ESCHERICHIA COLI JUHL = conditions: E. coli JUHL; BHI agar; unit assumed

| Compound | MIC [1] [µg/mL] | MIC [2] [µg/mL] | MIC [4] [µg/mL] | MIC (H. Influenza Dill AMP R) [µg/mL] | MIC [5] [µg/mL] | MIC [6] [µg/mL] | MIC (ESCHERICHIA COLI DC-2) [µg/mL] | MIC [7] [µg/mL] | MIC (PSEUDOMONAS CEPACIA 296I) [µg/mL] | MIC [8] [µg/mL] | MIC [9] [µg/mL] | MIC (M[…] ATCC 9341) [µg/mL] | MIC (STR[…] 508) [µg/mL] | MIC (EN[…] ATCC 8043) [µg/mL] | MIC (M[…] ATCC 4698) [µg/mL] | MIC [10] [µg/mL] | MIC [11] [µg/mL] | MIC (ESCHERICHIA COLI SS) [µg/mL] | MIC [12] [µg/mL] | MIC (ESCHERICHIA COLI KNK 437) [µg/mL] | further results |
| --- | --- | --- | --- | --- | --- | --- | --- | --- | --- | --- | --- | --- | --- | --- | --- | --- | --- | --- | --- | --- | --- |
| CC[C@H]1OC(=O)[C@H](C)C(=O)[C@H](C)[C@@H](O[C@@H]2O[C@H](C)C[C@H](N(C)C)[C@H]2O)[C@](C)(OC)C[C@@H](C)C2=N[C@@H]3COC[C@@H]3N3C(=O)O[C@@]1(C)[C@H]3[C@H]2C [Example 18] | 3.1 (≈ 4.56 µM) | > 100 | > 100 | 8 (≈ 11.8 µM) | 0.78 (≈ 1.15 µM) | 0.05 (≈ 0.0735 µM) | > 100 | 6.2 (≈ 9.12 µM) | > 100 | > 100 | 0.05 (≈ 0.0735 µM) | 0.05 (≈ 0.0735 µM) | 0.05 (≈ 0.0735 µM) | 0.1 (≈ 0.147 µM) | 0.78 (≈ 1.15 µM) | 0.39 (≈ 0.574 µM) | 0.78 (≈ 1.15 µM) | 0.78 (≈ 1.15 µM) | 0.39 (≈ 0.574 µM) | > 100 | MIC [3]: > 100 µg/mL; MIC [13]: > 100 µg/mL; MIC [14]: > 100 µg/mL; MIC [15]: > 100 µg/mL; MIC [16]: > 100 µg/mL; MIC [17]: 0.78 µg/mL (≈ 1.15 µM); MIC [18]: > 100 µg/mL; MIC [19]: > 100 µg/mL; MIC [20]: 0.78 µg/mL (≈ 1.15 µM); MIC [21]: 0.78 µg/mL (≈ 1.15 µM); MIC [22]: > 100 µg/mL; MIC [23]: > 100 µg/mL; MIC (CANDIDA ALBICANS CCH 442): > 100 µg/mL; MIC (ESCHERICHIA COLI H560): > 100 µg/mL |
| CC[C@H]1OC(=O)[C@H](C)C(=O)[C@H](C)[C@@H](O[C@@H]2O[C@H](C)C[C@H](N(C)C)[C@H]2O)[C@](C)(OC)C[C@@H](C)C2=NC3CN(CCN(C)C)CC3N3C(=O)O[C@@]1(C)[C@H]3[C@H]2C (stereo partly drawn) [Example 129] | 50 (≈ 66.7 µM) | > 100 | > 100 | 64 (≈ 85.3 µM) | 1.56 (≈ 2.08 µM) | 0.02 (≈ 0.0267 µM) | 50 (≈ 66.7 µM) | 1.56 (≈ 2.08 µM) | > 100 | > 100 | 0.05 (≈ 0.0667 µM) | 0.2 (≈ 0.267 µM) | 0.05 (≈ 0.0667 µM) | 0.39 (≈ 0.52 µM) | 1.56 (≈ 2.08 µM) | 1.56 (≈ 2.08 µM) | 1.56 (≈ 2.08 µM) | 0.78 (≈ 1.04 µM) | 3.1 (≈ 4.13 µM) | > 100 | MIC [13]: > 100 µg/mL; MIC [14]: 100 µg/mL (≈ 133 µM); MIC [15]: > 100 µg/mL; MIC [16]: > 100 µg/mL; MIC [17]: 1.56 µg/mL (≈ 2.08 µM); MIC [18]: > 100 µg/mL; MIC [19]: > 100 µg/mL; MIC [20]: 1.56 µg/mL (≈ 2.08 µM); MIC [21]: 1.56 µg/mL (≈ 2.08 µM); MIC (ESCHERICHIA COLI JUHL): 100 µg/mL (≈ 133 µM); MIC [22]: 100 µg/mL (≈ 133 µM); MIC [23]: > 100 µg/mL; MIC (CANDIDA ALBICANS CCH 442): > 100 µg/mL; MIC (ESCHERICHIA COLI H560): 50 µg/mL (≈ 66.7 µM) |
| CC[C@H]1OC(=O)[C@H](C)C(=O)[C@H](C)[C@@H](O[C@@H]2O[C@H](C)C[C@H](N(C)C)[C@H]2O)[C@](C)(OC)C[C@@H](C)C2=NCC(COC(=O)c3ccccc3)N3C(=O)O[C@@]1(C)[C@H]3[C@H]2C (stereo partly drawn) [Example 139] | 0.78 (≈ 1.01 µM) | > 100 | 100 (≈ 130 µM) | 2 (≈ 2.59 µM) | 0.1 (≈ 0.13 µM) | 0.01 (≈ 0.013 µM) | 25 (≈ 32.4 µM) | 0.39 (≈ 0.505 µM) | 25 (≈ 32.4 µM) | 100 (≈ 130 µM) | ≤ 0.005 | 0.05 (≈ 0.0648 µM) | 0.02 (≈ 0.0259 µM) | 0.02 (≈ 0.0259 µM) | 0.2 (≈ 0.259 µM) | 0.1 (≈ 0.13 µM) | 0.1 (≈ 0.13 µM) | 0.39 (≈ 0.505 µM) | 0.39 (≈ 0.505 µM) | 50 (≈ 64.8 µM) | MIC [13]: > 100 µg/mL; MIC [14]: 100 µg/mL (≈ 130 µM); MIC [15]: > 100 µg/mL; MIC [16]: > 100 µg/mL; MIC [17]: 0.1 µg/mL (≈ 0.13 µM); MIC [18]: > 100 µg/mL; MIC [19]: > 100 µg/mL; MIC [20]: 0.1 µg/mL (≈ 0.13 µM); MIC [21]: 0.1 µg/mL (≈ 0.13 µM); MIC (ESCHERICHIA COLI JUHL): 25 µg/mL (≈ 32.4 µM); MIC [22]: 100 µg/mL (≈ 130 µM); MIC [23]: 25 µg/mL (≈ 32.4 µM); MIC (CANDIDA ALBICANS CCH 442): > 100 µg/mL; MIC (ESCHERICHIA COLI H560): 25 µg/mL (≈ 32.4 µM) |
